Test results as given in PubChem BioAssay (NCI).
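Assay format: 96-well plates, 48-hour exposure. At the GI50, growth is halved. TGI: concentration producing complete growth inhibition.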

Key:
Assay in all cases: DTP human tumour cell line panel, 48 h
786-0 renal = tested on: 786-0 renal
A498 renal = tested on: A498 renal
A549 NSCLC = tested on: A549 NSCLC
ACHN renal = tested on: ACHN renal
BT-549 breast = tested on: BT-549 breast
CAKI-1 renal = tested on: CAKI-1 renal
CCRF-CEM leukemia = tested on: CCRF-CEM leukemia
COLO 205 colon = tested on: COLO 205 colon
DU-145 prostate = tested on: DU-145 prostate
EKVX NSCLC = tested on: EKVX NSCLC
HCT-116 colon = tested on: HCT-116 colon
HCT-15 colon = tested on: HCT-15 colon
HL-60(TB) leukemia = tested on: HL-60(TB) leukemia
HOP-62 NSCLC = tested on: HOP-62 NSCLC
HOP-92 NSCLC = tested on: HOP-92 NSCLC
HS 578T breast = tested on: HS 578T breast
HT29 colon = tested on: HT29 colon
IGROV1 ovarian = tested on: IGROV1 ovarian
K-562 leukemia = tested on: K-562 leukemia
KM12 colon = tested on: KM12 colon
LOX IMVI melanoma = tested on: LOX IMVI melanoma
M14 melanoma = tested on: M14 melanoma
MALME-3M melanoma = tested on: MALME-3M melanoma
MCF7 breast = tested on: MCF7 breast
MDA-MB-231 breast = tested on: MDA-MB-231 breast
MDA-MB-435 = tested on: MDA-MB-435
MOLT-4 leukemia = tested on: MOLT-4 leukemia
NCI-H226 lung = tested on: NCI-H226 lung
NCI-H23 lung = tested on: NCI-H23 lung
NCI-H460 lung = tested on: NCI-H460 lung
NCI-H522 lung = tested on: NCI-H522 lung
NCI/ADR-RES ovarian = tested on: NCI/ADR-RES ovarian
OVCAR-3 ovarian = tested on: OVCAR-3 ovarian
OVCAR-4 ovarian = tested on: OVCAR-4 ovarian
OVCAR-5 ovarian = tested on: OVCAR-5 ovarian
OVCAR-8 ovarian = tested on: OVCAR-8 ovarian
PC-3 prostate = tested on: PC-3 prostate
RPMI-8226 leukemia = tested on: RPMI-8226 leukemia
RXF 393 renal = tested on: RXF 393 renal
SF-268 CNS = tested on: SF-268 CNS
SF-295 CNS = tested on: SF-295 CNS
SF-539 CNS = tested on: SF-539 CNS
SK-MEL-2 melanoma = tested on: SK-MEL-2 melanoma
SK-MEL-28 melanoma = tested on: SK-MEL-28 melanoma
SK-MEL-5 melanoma = tested on: SK-MEL-5 melanoma
SK-OV-3 ovarian = tested on: SK-OV-3 ovarian
SN12C renal = tested on: SN12C renal
SNB-19 CNS = tested on: SNB-19 CNS
SNB-75 CNS = tested on: SNB-75 CNS
SR leukemia = tested on: SR leukemia
SW-620 colon = tested on: SW-620 colon
T-47D breast = tested on: T-47D breast
TK-10 renal = tested on: TK-10 renal
U251 CNS = tested on: U251 CNS
UACC-257 melanoma = tested on: UACC-257 melanoma
UACC-62 melanoma = tested on: UACC-62 melanoma
UO-31 renal = tested on: UO-31 renal

With `COC(=O)c1ccc2nc(-c3cc4ccccc4n3C)n(CCCCOc3cc4c(cc3OC)C(=O)N3CCC[C@H]3C=N4)c2c1` the GI50 (786-0 renal) was 0.789 µM, the TGI (786-0 renal) was 2.46 µM and the GI50 (A498 renal) was 0.374 µM. The TGI (A498 renal) was 1.73 µM, the GI50 (A549 NSCLC) was 1.5 µM and the TGI (A549 NSCLC) was 10.3 µM. For the same compound, the GI50 (ACHN renal) was 1.17 µM, the TGI (ACHN renal) was 6.75 µM and the GI50 (BT-549 breast) was 0.284 µM. It also gave a TGI (BT-549 breast) of 1.13 µM, a GI50 (CAKI-1 renal) of 0.953 µM and a TGI (CAKI-1 renal) of 4.85 µM. For the same compound, the GI50 (CCRF-CEM leukemia) was 2.53 µM, the TGI (CCRF-CEM leukemia) was over 100 µM and the GI50 (COLO 205 colon) was 0.575 µM. It also gave a TGI (COLO 205 colon) of 1.46 µM, a GI50 (DU-145 prostate) of 0.234 µM and a TGI (DU-145 prostate) of 0.564 µM. The GI50 (EKVX NSCLC) was 2.41 µM, the TGI (EKVX NSCLC) was 6.46 µM and the GI50 (HCT-116 colon) was 0.528 µM. It also gave a TGI (HCT-116 colon) of 2.61 µM, a GI50 (HCT-15 colon) of 2.41 µM and a TGI (HCT-15 colon) of 8.94 µM. For the same compound, the GI50 (HL-60(TB) leukemia) was 0.273 µM, the GI50 (HOP-62 NSCLC) was 0.905 µM and the TGI (HOP-62 NSCLC) was 3.76 µM. For the same compound, the GI50 (HOP-92 NSCLC) was 0.347 µM, the TGI (HOP-92 NSCLC) was 2.77 µM and the GI50 (HS 578T breast) was 0.276 µM. For the same compound, the TGI (HS 578T breast) was 1.42 µM, the GI50 (HT29 colon) was 0.929 µM and the TGI (HT29 colon) was 5.49 µM. For the same compound, the GI50 (IGROV1 ovarian) was 0.254 µM, the TGI (IGROV1 ovarian) was 0.889 µM and the GI50 (K-562 leukemia) was 0.286 µM. It also gave a GI50 (KM12 colon) of 0.255 µM, a TGI (KM12 colon) of 0.787 µM and a GI50 (LOX IMVI melanoma) of 0.592 µM. The TGI (LOX IMVI melanoma) was 1.74 µM, the GI50 (M14 melanoma) was 0.713 µM and the TGI (M14 melanoma) was 2.07 µM. The GI50 (MALME-3M melanoma) was 1.07 µM, the TGI (MALME-3M melanoma) was 2.83 µM and the GI50 (MCF7 breast) was 0.292 µM. The TGI (MCF7 breast) was 1.41 µM, the GI50 (MDA-MB-231 breast) was 0.366 µM and the TGI (MDA-MB-231 breast) was 2.17 µM. The GI50 (MDA-MB-435) was 0.677 µM, the TGI (MDA-MB-435) was 1.77 µM and the GI50 (MOLT-4 leukemia) was 0.298 µM. It also gave a GI50 (NCI-H226 lung) of 1.23 µM, a TGI (NCI-H226 lung) of 8.04 µM and a GI50 (NCI-H23 lung) of 0.485 µM. The TGI (NCI-H23 lung) was 1.21 µM, the GI50 (NCI-H460 lung) was 0.561 µM and the TGI (NCI-H460 lung) was 1.55 µM. The GI50 (NCI-H522 lung) was 0.291 µM, the TGI (NCI-H522 lung) was 1.1 µM and the GI50 (NCI/ADR-RES ovarian) was 3.02 µM. It also gave a TGI (NCI/ADR-RES ovarian) of 9.8 µM, a GI50 (OVCAR-3 ovarian) of 0.214 µM and a TGI (OVCAR-3 ovarian) of 0.51 µM. For the same compound, the GI50 (OVCAR-4 ovarian) was 1.54 µM, the TGI (OVCAR-4 ovarian) was 11.4 µM and the GI50 (OVCAR-5 ovarian) was 0.811 µM. It also gave a TGI (OVCAR-5 ovarian) of 2.06 µM, a GI50 (OVCAR-8 ovarian) of 0.8 µM and a TGI (OVCAR-8 ovarian) of 7.25 µM. The GI50 (PC-3 prostate) was 0.457 µM, the TGI (PC-3 prostate) was 10.3 µM and the GI50 (RPMI-8226 leukemia) was 0.345 µM. For the same compound, the TGI (RPMI-8226 leukemia) was over 100 µM, the GI50 (RXF 393 renal) was 0.687 µM and the TGI (RXF 393 renal) was 2.27 µM. For the same compound, the GI50 (SF-268 CNS) was 0.29 µM, the TGI (SF-268 CNS) was 0.925 µM and the GI50 (SF-295 CNS) was 0.667 µM. For the same compound, the TGI (SF-295 CNS) was 4.85 µM, the GI50 (SF-539 CNS) was 0.881 µM and the TGI (SF-539 CNS) was 2.43 µM. It also gave a TGI (SK-MEL-2 melanoma) of 0.631 µM, a GI50 (SK-MEL-28 melanoma) of 0.652 µM and a TGI (SK-MEL-28 melanoma) of 2.3 µM. For the same compound, the GI50 (SK-MEL-5 melanoma) was 1.21 µM, the TGI (SK-MEL-5 melanoma) was 2.48 µM and the GI50 (SK-OV-3 ovarian) was 1.86 µM. For the same compound, the TGI (SK-OV-3 ovarian) was 4.67 µM, the GI50 (SN12C renal) was 0.361 µM and the TGI (SN12C renal) was 2.17 µM. For the same compound, the GI50 (SNB-19 CNS) was 2.15 µM, the TGI (SNB-19 CNS) was 7.07 µM and the GI50 (SNB-75 CNS) was 0.339 µM. The TGI (SNB-75 CNS) was 1.35 µM, the GI50 (SR leukemia) was 0.643 µM and the TGI (SR leukemia) was over 100 µM. The GI50 (SW-620 colon) was 0.389 µM, the TGI (SW-620 colon) was 1.75 µM and the GI50 (T-47D breast) was 0.751 µM. It also gave a TGI (T-47D breast) of 3.51 µM, a GI50 (TK-10 renal) of 0.43 µM and a TGI (TK-10 renal) of 3.29 µM. For the same compound, the GI50 (U251 CNS) was 0.632 µM, the TGI (U251 CNS) was 2.08 µM and the GI50 (UACC-257 melanoma) was 1.17 µM. It also gave a TGI (UACC-257 melanoma) of 3.78 µM, a GI50 (UACC-62 melanoma) of 0.211 µM and a TGI (UACC-62 melanoma) of 0.625 µM. It also gave a GI50 (UO-31 renal) of 0.389 µM and a TGI (UO-31 renal) of 2.19 µM.
